# Patent US11407811B2, “Fusion protein, preparation method therefor and use thereof” (JIANGSU RONGTAI BIOTECH CO., LTD., priority 2017, dated 2022)
# Key:
# [1] = system: cervical cancer cell Hela; test: MTT assay, proliferation of cervical cancer cell Hela; assay type: cell-based; conditions: dose 5 μg/mL
# Experimental: (§1) The MTT assay was used to detect the inhibitory effect of the integrin blocker fusion protein obtained in Example 1 on the proliferation of various tumor cells, including melanoma cell B16F10, gastric cancer cell MGC-803, lung cancer cell A549, liver cancer cell Hep-G2, breast cancer cell MDA-MB-231, colon cancer cell HCT-116, human glioma U87, and cervical cancer cell Hela.
# (§2) The tumor cells were cultured in a 5% CO2 incubator at 37° C. to a density of 90% or more, and collected by trypsinization. The cells were resuspended in the culture liquid and counted under a microscope. The cell concentration was adjusted to 3.0×10^4 cells/mL. The cell suspension was inoculated into a 96-well plate at 100 μL per well and cultured overnight in a 5% CO2 incubator at 37° C. […] After the cells were fully adhered, each dilution was added to a 96-well plate at 100 μL per well, respectively. […] 20 μL of 5 mg/mL MTT was added to each well of a 96-well plate, and incubation was continued for 4 hours. The medium was aspirated and 100 μL of DMSO per well were added to dissolve. The absorbance was measured at 570 nm with a microplate reader with a reference wavelength of 630 nm, and the proliferation inhibition (PI) was calculated. The formula is as follows: […]
# (§3) where Ntest is the OD value of the test group and Ncontrol is the OD value of the blank control group.
# (§4) The test was repeated 5 times independently. The results obtained from the test were calculated as mean±SD, and statistical t-test was performed. P<0.05 was considered as a significant difference, and P<0.01 was considered as an extremely significant difference.
# [2] = system: colon cancer cells HCT-116; test: MTT assay, proliferation of colon cancer cell HCT-116; assay type: cell-based; conditions: dose 5 μg/mL
# Experimental: as §1, §2, §3, §4
# [3] = system: liver cancer cell Hep-G2; test: MTT assay, proliferation of liver cancer cell Hep-G2; assay type: cell-based; conditions: dose 5 μg/mL
# Experimental: as §1, §2, §3, §4
# [4] = system: human retinal vascular endothelial cell (HRCEC); test: MTT assay, proliferation of human retinal vascular endothelial cell (HRCEC); assay type: cell-based; conditions: 5 μg/mL (positive control), 48 hours
# Experimental: The activity of the integrin blocker polypeptide to inhibit proliferation of human retinal vascular endothelial cells was examined by MTT assay. HRCEC cells were cultured in a 5% CO2 incubator at 37° C. to a density of 90% or more, and then collected by trypsinization. The cells were resuspended in the culture liquid and counted under a microscope. The cell concentration was adjusted to 3.0×10^4 cells/mL. The cell suspension was inoculated into a 96-well plate at 100 μL per well and cultured in a 5% CO2 incubator at 37° C. overnight. […] After the cells were fully adhered, each dilution was added to a 96-well plate at 100 μL per well, respectively. […] 20 μL of 5 mg/mL MTT was added to each well of a 96-well plate, and incubation was continued for 4 hours. The medium was aspirated and 100 μL of DMSO was added per well for dissolution. The absorbance was measured at 570 nm with a microplate reader with a reference wavelength of 630 nm, and the proliferation inhibition (PI) was calculated. The formula was as follows: […]
# as §3
# The test was repeated 5 times independently. The results obtained from the test were calculated as mean±SD, and statistical t-test was performed. P<0.05 was considered as significant difference, and P<0.01 was considered as extremely significant difference.
# [5] = system: lung cancer cell A549; test: MTT assay, proliferation of lung cancer cell A549; assay type: cell-based; conditions: dose 5 μg/mL
# Experimental: as §1, §2, §3, §4
# [6] = system: human glioma U87; test: MTT assay, proliferation of human glioma U87; assay type: cell-based; conditions: dose 5 μg/mL
# Experimental: as §1, §2, §3, §4
# [7] = system: melanoma cell line B16F10; test: MTT assay, proliferation of melanoma cell B16F10; assay type: cell-based; conditions: dose 5 μg/mL
# Experimental: as §1, §2, §3, §4
# [8] = system: gastric cancer cell MGC-803; test: MTT assay, proliferation of gastric cancer cell MGC-803; assay type: cell-based; conditions: dose 5 μg/mL
# Experimental: as §1, §2, §3, §4
# [9] = system: breast cancer cell MDA-MB-231; test: MTT assay, proliferation of breast cancer cell MDA-MB-231; assay type: cell-based; conditions: dose 5 μg/mL
# Experimental: as §1, §2, §3, §4
# [10] = system: adjuvant arthritis in rat; test: Chronic inflammation of adjuvant arthritis in rat; assay type: in vivo; set-up: key to Clinical score Whole body: sum of hind/fore foot, ear, nose, tail scores; full score 8
# Experimental: 80 SPF SD rats were randomly divided into 8 groups. Rats in each group were lightly anesthetized with ether. Then, 0.1 mL of complete Freund's adjuvant containing inactivated Mycobacterium tuberculosis was injected subcutaneously into the left hind foot of the rats. Primary arthritis occurred in the left hind foot of the rat, and at about 13 days post-modeling, secondary arthritis occurred in the right hind foot. A blank control group was injected with an equal volume of physiological saline. The drug was administered 13 days after modeling. A methotrexate group was administered by injection every 5 days for 15 days, 4 times in total; the fusion protein I, protein II, protein III, protein IV, and protein V at high, medium and low doses (128 mg/kg, 32 mg/kg, 8 mg/kg) were administered by injection every 5 days for 15 days.
# Using a foot volume measuring method, a marker was made with a fat-soluble marker at the left and right posterior ankle joint of each rat, and the left and right hind feet of the animal were respectively immersed in the volume measuring device. The immersion depth was bounded by the marker, and the reading value at the scale pipette of the device was the initial volume of the animal's left and right hind feet.
# The day of modeling was considered as the 0th day and recorded as d0. The volume of the left hind foot (modeling foot) was measured from the first day d1 after modeling every 2 days. When the swelling occurred (i.e., secondary arthritis occurred) at the contralateral non-inflammatory foot (right hind foot), the administration was started. The volume of the left and right hind feet was measured every 2 days, and the degree of primary and secondary toe swelling was determined, which was calculated as follows:
# Primary toe swelling (mL)=left hind foot volume on the day of measurement-initial volume of left hind foot
# Secondary toe swelling (mL)=right hind foot volume on the day of measurement-initial volume of right hind foot 2. Clinical score
# Systemic score: the systemic score was taken every 2 days after the onset of secondary inflammation.
# Hind foot: no swelling=0 score, one hind foot swelling=1 score, two hind feet swelling=2 scores;
# Forefoot: no swelling=0 score, one forefoot swelling=1 score, two forefeet swelling=2 scores;
# Ear: no redness and nodules=0 score, redness or nodules in one ear=1 score, redness and nodules in both ears=2 scores;
# Nose: no swelling=0 score, obvious swelling=1 score;
# Tail: no nodules=0 score, with nodules=1 score; full score was 8 scores.
# Arthritis index score: the arthritis index score was performed every 2 days after the onset of secondary inflammation.
# The initial body weight of each group of rats was weighed before modeling. The body weight was measured every 2 days from d1 after modeling, from which the initial body weight was subtracted to obtain the weight gain of each group of rats.
# [11] = system: xylene-induced ear swelling in mice; test: Xylene-induced ear swelling in mice; assay type: in vivo; conditions: 200 mg/kg (positive control)
# Experimental: 80 Kunming mice were divided into 8 groups with 10 mice for each group and numbered. A physiological saline group was used as a blank control group, an aspirin group (200 mg/kg) was used as a positive control group, and fusion protein I, protein II, protein III, protein IV and protein V at high, medium and low doses (128, 32, 8 mg/kg) were used as experimental groups. Mice were administered once by injection, while EDSM needed to be administered twice a day for 5 consecutive days. The blank control group was given an equal volume of physiological saline. After the fifth day, 0.05 mL of xylene was applied to both sides of the right ears of the mice to induce inflammation, and the left ears were not applied and were normal ears. After 2 h, the mice were sacrificed by dislocation, and the ears were cut along the auricle. Ear pieces were taken with a puncher and weighed, and the swelling degree and swelling rate were calculated. Swelling degree=right ear piece weight-left ear piece weight, swelling rate=(swelling degree/left ear piece weight)×100%.
# [12] = system: human umbilical vein endothelial cells (HUVEC); test: Three-dimensional transwell assay, migration of HUVEC; assay type: cell-based; conditions: dose 8.0 · 10^−6 μg/mL
# Experimental: Human umbilical vein endothelial cells (HUVECs) were cultured with endothelial cell culture fluid containing 5% fetal bovine serum and 1×ECGS in a 5% CO2 incubator at 37° C., to a confluence of 90% or more, and then inhibitory effects of fusion protein I, protein II, protein III, protein IV, and protein V on migration of endothelial cells were detected by transwell assay, in which only endothelial cells HUVEC of passage 2 to 8 were used, and the specific operation was as follows.
# (1) 10 mg/mL Matrigel was diluted with a DMEM medium at a ratio of 1:4, coated on a transwell chamber membrane, and air-dried at room temperature.
# (2) HUVEC cells cultured to logarithmic phase were digested with 0.2% EDTA, collected, washed twice with PBS, followed by resuspended in an endothelial cell culture liquid containing 0.1% BSA, counted under a microscope, and the cell concentration was adjusted to 1×10^5 cells/mL;
# (3) Test solutions for each group were formulated and diluted to 100 μL with a cell culture liquid containing 0.1% BSA;
# Groups were divided as follows:
# Blank control group: a cell culture liquid containing no drug;
# Endostar group: 5 mg/mL Endostar solution diluted to a predetermined concentration with a cell culture liquid containing no drug; […]
# (4) The cells were inoculated into a transwell chamber at 100 μL per well, and test solutions for each group were added to the chamber. To a 24-well plate, 0.6 mL of endothelial cell culture liquid containing 5% fetal bovine serum and 1×ECGS was added to stimulate cell migration, and incubated at 5% CO2 for 24 h at 37° C.
# (5) The culture liquid in the well was discarded. The cells were fixed with 90% alcohol at room temperature for 30 min, stained with 0.1% crystal violet for 10 min at room temperature, and rinsed with water. Un-migrated cells in the upper layer were gently wiped off by a cotton swab. The observation was carried out under microscope and four fields of view were selected for taking photos and counting. The migration inhibition (MI) was calculated according to the formula: […]
# where Ntest is the migration cell number in the test group, and Ncontrol is the migration cell number in the blank control group.
# The test was repeated 3 times independently. The results obtained from the test were calculated as mean±SD, and statistical t-test was performed. P<0.05 was considered as a significant difference, and P<0.01 was considered as an extremely significant difference.
structure (smiles),measurement,setting,value
"CC(=O)O[C@H]1C(=O)[C@@]2(C)[C@H]([C@H](OC(=O)c3ccccc3)[C@]3(O)C[C@H](OC(=O)[C@H](O)[C@@H](NC(=O)c4ccccc4)c4ccccc4)C(C)=C1C3(C)C)[C@]1(OC(C)=O)CO[C@@H]1C[C@@H]2O [Taxol, reference compound]",A570 nm/A630 nm,[1],0.2114 ± 0.0275
same,PI (%),[1],73.55%
same,A570 nm/A630 nm,[2],0.4103 ± 0.0287
same,PI (%),[2],53.39%
same,A570 nm/A630 nm,[3],0.3258
same,PI (%),[3],52.42%
same,A570 nm/A630 nm,[4],0.2387 ± 0.0257
same,PI,[4],82.28%
same,A570 nm/A630 nm,[5],0.4269
same,PI (%),[5],55.93%
same,A570 nm/A630 nm,[6],0.2177 ± 0.0277
same,PI (%),[6],68.90%
same,A570 nm/A630 nm,[7],0.5996 ± 0.0139
same,PI (%),[7],52.15%
same,A570 nm/A630 nm,[8],0.6011 ± 0.0148
same,PI (%),[8],50.81%
same,A570 nm/A630 nm,[9],0.4156 ± 0.0287
"CN(Cc1cnc2nc(N)nc(N)c2n1)c1ccc(C(=O)N[C@@H](CCC(=O)O)C(=O)O)cc1 [methotrexate, reference compound]",Weight gain,[10]; 1 mg/kg (positive drug),47.32 ± 17.20 g
same,Clinical score Whole body,"[10]; 1 mg/kg (positive drug), full score 8",1.31 ± 0.17
same,Foot swelling degree Left,"[10]; 1 mg/kg (positive drug), left hind foot (primary inflammation)",1.19 ± 0.20 mL
same,Clinical score Arthritis index,"[10]; 1 mg/kg (positive drug), maximum score 16",2.00 ± 0.54
same,Foot swelling degree Right,"[10]; 1 mg/kg (positive drug), right foot (secondary inflammation)",1.22 ± 0.13 mL
same,therapeutic effect on primary arthritis (primary toe swelling degree),"[10]; methotrexate group, injection every 5 days for 15 days",the best effect
"CC(=O)Oc1ccccc1C(=O)O [aspirin, reference compound]",Swelling degree,"[11]; 2 h after xylene, mice",3.12 ± 0.34 mg
same,PI,[11]; ear swelling vs control,53.08%
"CCN(CC)CCNC(=O)c1c(C)[nH]c(/C=C2\C(=O)Nc3ccc(F)cc32)c1C [Sunitinib, reference compound]",MI (%),[12],82.13%
same,Migration cell number,[12],449.0 ± 153.86
